Assays:
Glucocorticoid Receptor = target: T1, Glucocorticoid Receptor (Rattus norvegicus, UniProt P06536); assay: Receptor binding affinity, competitive binding of 3H-Dexamethasone tracer in thymus cytosol; conditions: relative binding affinity; thymus cytosol of the adrenalectomized rat; tracer 3H-Dexamethasone; reference Dexamethasone = 100%
T1 construct: receptors in the cytosol from animal target organs; from tissue; host or cells: thymus cytosol of adrenalectomized rat
T1 sequence (P06536 1-795): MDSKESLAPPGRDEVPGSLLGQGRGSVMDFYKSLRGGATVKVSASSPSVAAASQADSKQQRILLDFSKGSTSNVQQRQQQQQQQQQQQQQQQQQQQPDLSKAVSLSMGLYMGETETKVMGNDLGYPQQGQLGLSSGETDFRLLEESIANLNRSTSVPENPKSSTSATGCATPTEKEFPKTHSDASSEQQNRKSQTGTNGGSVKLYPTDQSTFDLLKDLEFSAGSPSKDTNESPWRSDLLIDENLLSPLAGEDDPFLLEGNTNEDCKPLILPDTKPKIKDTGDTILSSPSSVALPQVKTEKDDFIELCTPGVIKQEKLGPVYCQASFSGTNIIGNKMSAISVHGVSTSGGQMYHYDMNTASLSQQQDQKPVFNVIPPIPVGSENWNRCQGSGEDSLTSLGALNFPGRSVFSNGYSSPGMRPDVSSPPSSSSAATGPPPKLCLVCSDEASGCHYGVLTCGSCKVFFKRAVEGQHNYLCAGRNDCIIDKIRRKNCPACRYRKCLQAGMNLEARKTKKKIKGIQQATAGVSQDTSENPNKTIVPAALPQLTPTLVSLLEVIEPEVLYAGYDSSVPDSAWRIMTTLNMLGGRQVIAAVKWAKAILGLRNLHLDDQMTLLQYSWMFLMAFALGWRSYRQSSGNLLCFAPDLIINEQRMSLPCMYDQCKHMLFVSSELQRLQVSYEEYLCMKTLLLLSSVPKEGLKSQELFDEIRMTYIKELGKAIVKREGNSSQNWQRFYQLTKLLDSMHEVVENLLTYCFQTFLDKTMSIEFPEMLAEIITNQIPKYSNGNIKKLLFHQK
Experimental: (§1) The receptor binding affinity was determined by competitive binding of a specifically binding ^3H-labeled tracer and the compound to be tested to receptors in the cytosol from animal target organs. In this case, receptor saturation and reaction equilibrium in the case of the following reaction conditions were sought:
(§2) Uterus cytosol of the estradiol-primed rabbit, stored at −30° C., in TED buffer (20 mmol of Tris/HCl, pH 7.4; 1 mmol of ethylenediamine tetraacetate, 2 mmol of dithiothreitol) with 250 mmol of saccharose. • Tracer: ^3H—ORG 2058 • Reference substance: Progesterone Glucocorticoid Receptor: • Thymus cytosol of the adrenalectomized rat, thymi stored at −30° C.; TED buffer • Tracer: ^3H-Dexamethasone, 20 nmol • Reference substance: Dexamethasone

pregnancy in the rat = assay: Early-abortive action in the rat; type: in vivo; conditions: subcutaneous, 5th to 7th day of pregnancy; dose giving complete inhibition of pregnancy
Experimental: The early-abortive action was determined in the rat after subcutaneous administration from the 5th to the 7th day of pregnancy [administration 0.2 ml/animal/day in benzyl benzoate/castor oil (1+4 v/v)]. The dose indicates what amount must be given to at least 4 animals apiece in comparison to untreated animals, so that a complete inhibition of pregnancy is achieved.

Progesterone Receptor = target: T2, Progesterone Receptor (Oryctolagus cuniculus, UniProt P06186); assay: Receptor binding affinity, competitive binding of 3H-ORG 2058 tracer in uterus cytosol; conditions: relative binding affinity; uterus cytosol of the estradiol-primed rabbit; tracer 3H-ORG 2058; reference Progesterone = 100%
T2 construct: receptors in the cytosol from animal target organs; from tissue; host or cells: uterus cytosol of estradiol-primed rabbit
T2 sequence (P06186 1-930): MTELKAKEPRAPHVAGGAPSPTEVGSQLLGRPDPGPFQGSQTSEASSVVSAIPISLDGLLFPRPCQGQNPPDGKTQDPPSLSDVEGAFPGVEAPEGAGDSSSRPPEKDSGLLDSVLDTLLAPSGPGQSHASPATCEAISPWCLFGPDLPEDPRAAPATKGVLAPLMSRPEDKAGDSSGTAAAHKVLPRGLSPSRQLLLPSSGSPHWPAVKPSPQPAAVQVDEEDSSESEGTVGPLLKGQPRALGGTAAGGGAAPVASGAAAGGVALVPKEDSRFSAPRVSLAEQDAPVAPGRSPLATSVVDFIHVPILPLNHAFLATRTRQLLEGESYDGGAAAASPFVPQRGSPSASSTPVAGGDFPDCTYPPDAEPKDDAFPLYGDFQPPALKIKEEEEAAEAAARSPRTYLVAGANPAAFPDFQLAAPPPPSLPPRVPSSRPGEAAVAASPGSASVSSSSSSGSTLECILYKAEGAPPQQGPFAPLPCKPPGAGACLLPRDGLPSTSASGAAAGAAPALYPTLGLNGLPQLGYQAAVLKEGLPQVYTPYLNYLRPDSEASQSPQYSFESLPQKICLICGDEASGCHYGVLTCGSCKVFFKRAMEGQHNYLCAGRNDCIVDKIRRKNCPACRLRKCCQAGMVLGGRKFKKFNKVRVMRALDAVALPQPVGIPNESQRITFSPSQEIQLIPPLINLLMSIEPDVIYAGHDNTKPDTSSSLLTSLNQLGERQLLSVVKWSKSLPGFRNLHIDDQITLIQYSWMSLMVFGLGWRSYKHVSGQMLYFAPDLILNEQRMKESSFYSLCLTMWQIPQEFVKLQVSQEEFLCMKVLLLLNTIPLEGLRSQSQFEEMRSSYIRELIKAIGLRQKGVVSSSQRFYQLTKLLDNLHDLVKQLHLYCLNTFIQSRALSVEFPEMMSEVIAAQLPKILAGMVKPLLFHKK
Experimental: as §1, §2

With `COCC1(O)CCC2C3CCC4=CC(=O)CCC4=C3C(c3ccc(C=NO)cc3)CC21C` (stereo not drawn) [4-[17β-Hydroxy-(17α-(methoxymethyl)-3-oxoestra-4,9-dien-11β-] [4-[17β-hydroxy-17α-(methoxymethyl)-3-oxoestra-4,9-dien-11β-yl]benzaldehyde-1Z-oxime] the “Glucocorticoid Receptor [Dexamethasone = 100%]” value (Glucocorticoid Receptor) was 67%.
In the case of `COC[C@]1(OC)CC[C@H]2[C@@H]3CCC4=CC(=O)CCC4=C3[C@@H](c3ccc(/C=N/O)cc3)C[C@@]21C` [4-[17β-Methoxy-17α-(methoxymethyl)-3-oxoestra-4,9-dien-11β-yl] benzaldehyde-1E-oxime], the “100% Early-abortive Action in the Rat” value (pregnancy in the rat) is reported as 1.0 mg/animal/day, the “Glucocorticoid Receptor [Dexamethasone = 100%]” value (Glucocorticoid Receptor) is reported as 78% and the “Progesterone Receptor [Progesterone = 100%]” value (Progesterone Receptor) is reported as 302%.
With `CC12CC(c3ccc(C=NO)cc3)C3=C4CCC(=O)C=C4CCC3C1CCC2(O)COCC(F)(F)F` (stereo not drawn) [4-[17β-Hydroxy-(17α-(1,1,1-trifluoroethoxymethyl)-3-oxoestra-4,9-dien-11β-yl]benzaldehyde-1E-oxime] the “100% Early-abortive Action in the Rat” value (pregnancy in the rat) was 3.0 mg/animal/day, the “Glucocorticoid Receptor [Dexamethasone = 100%]” value (Glucocorticoid Receptor) was 94% and the “Progesterone Receptor [Progesterone = 100%]” value (Progesterone Receptor) was 177%.
`COCC1(OC)CCC2C3CCC4=CC(=O)CCC4=C3C(c3ccc(C=NO)cc3)CC21C` (stereo not drawn) [4-[17β-methoxy-17α-(methoxymethyl)-3-oxoestra-4,9-dien-11β-yl]benzaldehyde-1Z-oxime] was tested, and the “100% Early-abortive Action in the Rat” value (pregnancy in the rat) was 1.0 mg/animal/day, the “Glucocorticoid Receptor [Dexamethasone = 100%]” value (Glucocorticoid Receptor) was 52% and the “Progesterone Receptor [Progesterone = 100%]” value (Progesterone Receptor) was 126%.
In the case of `COCC1(O)CCC2C3CCC4=CC(=O)CCC4=C3C(c3ccc(C=NO)cc3)CC21C` (stereo not drawn) [4-[17β-Hydroxy-(17α-(methoxymethyl)-3-oxoestra-4,9-dien-11β-] [4-[17β-Hydroxy-17α-(methoxymethyl)-3-oxoestra-4,9-dien-11β-yl]benzaldehyde-1E-oxime], the “100% Early-abortive Action in the Rat” value (pregnancy in the rat) is reported as 1.0 mg/animal/day and the “Glucocorticoid Receptor [Dexamethasone = 100%]” value (Glucocorticoid Receptor) is reported as 76%.
In the case of `CC#C[C@]1(O)CC[C@H]2[C@@H]3CCC4=CC(=O)CCC4=C3[C@@H](c3ccc(N(C)C)cc3)C[C@@]21C` [Ru 38 486, reference compound], the “100% Early-abortive Action in the Rat” value (pregnancy in the rat) is reported as 3.0 mg/animal/day and the “Progesterone Receptor [Progesterone = 100%]” value (Progesterone Receptor) is reported as 685%.
